The supplement of paper PMC11061612

Legend:
[1] = test system: OVCAR-8 (Ovarian Carcinoma); assay: Bliss excess, mean over the matrix (fraction); higher = more synergy
In short: (§1)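 After 24 hours at 37°C and 5% CO2 in 1536-well plates, cells in DMEM/F12 or RPMI plus 10% FBS received two-drug dose matrices for 72 hours. Viability came from CellTiter-Glo 2.0 luminescence and was scaled as inhibition, anchored at 0 by vehicle wells and at 1 by blank wells. Combination Emax is taken as the second-highest inhibition in the matrix, and Bliss excess as the observed combination effect less EA + EB − EA·EB, with EA and EB the single-agent effects.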

[2] = test system: LU-139 (Small Cell Lung Carcinoma); assay: as above
In short: as §1

[3] = test system: OC-314 (Ovarian Carcinoma); assay: as above
In short: as §1

[4] = test system: HO-1-u-1 (Oral Cavity Carcinoma); assay: as above
In short: as §1

HMV-II (Melanoma) = assay: combination Emax (second highest fraction inhibited in the dose matrix, 72 h); higher = more inhibition; extreme values may be limits of the assay
In short: as §1

Mewo (Melanoma) = assay: as above
In short: as §1

[5] = test system: OVCAR-8 (Ovarian Carcinoma); assay: as above
In short: as §1

[6] = test system: HARA (Squamous Cell Lung Carcinoma); assay: as above
In short: as §1

[7] = test system: 8305C (Thyroid Gland Carcinoma); assay: as above
In short: as §1

[8] = test system: NCI-H69 (Small Cell Lung Carcinoma); assay: as above
In short: as §1

[9] = test system: RKO (Colorectal Carcinoma); assay: as above
In short: as §1

[10] = test system: MHH-PREB-1 (B-Cell Non-Hodgkin's Lymphoma); assay: as above
In short: as §1

[11] = test system: LoVo (Colorectal Carcinoma); assay: as above
In short: as §1

[12] = test system: PCI-30 (Head and Neck Carcinoma); assay: as above
In short: as §1

COLO-829 (Melanoma) = assay: as above
In short: as §1

[13] = test system: OC-314 (Ovarian Carcinoma); assay: as above
In short: as §1

[14] = test system: SW1116 (Colorectal Carcinoma); assay: as above
In short: as §1

[15] = test system: NCI-H747 (Colorectal Carcinoma); assay: as above
In short: as §1

[16] = test system: TE-4 (Esophageal Squamous Cell Carcinoma); assay: as above
In short: as §1

[17] = test system: CAL-51 (Breast Carcinoma); assay: as above
In short: as §1
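Throughout, for Bliss excess, mean over the matrix: after 72 h of two-drug dosing.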

Compound	Bliss excess [1]	Bliss excess [2]	Bliss excess [3]	Bliss excess [4]	combination Emax (HMV-II (Melanoma))	combination Emax (Mewo (Melanoma))	combination Emax [5]	combination Emax [6]	combination Emax [7]	combination Emax [8]	combination Emax [9]	combination Emax [10]	combination Emax [11]	combination Emax [12]	combination Emax (COLO-829 (Melanoma))	combination Emax [13]	combination Emax [14]	combination Emax [15]	combination Emax [16]	combination Emax [17]
C[C@@H](c1ccc2nccn2c1)n1nnc2ncc(-c3cnn(C)c3)nc21 [Savolitinib] + CC1(C)CCC(CN2CCN(c3ccc(C(=O)NS(=O)(=O)c4ccc(NCC5CCOCC5)c([N+](=O)[O-])c4)c(Oc4cnc5[nH]ccc5c4)c3)CC2)=C(c2ccc(Cl)cc2)C1 [Venetoclax] (first compound max 1 µM, 7x7, partner max 1 µM)	-0.035	-0.0256	-0.0046	-0.039	0.12	0.194	0.0706	0.122	0.217	0.372	0.166	0.0731	0.195	0.143	0.209	0.254	0.145	0.181	0.145	0.113
COc1cccc2c1C(=O)c1c(O)c3c(c(O)c1C2=O)C[C@@](O)(C(=O)CO)C[C@@H]3O[C@H]1C[C@H](N)[C@H](O)[C@H](C)O1 [Doxorubicin] + Cc1cc2ncnn2cc1Nc1ncc2c(n1)n(C1CCOCC1)c(=O)n2C [AZD7648] (first compound max 1 µM, 7x7, partner max 10 µM)	0.061	0.0476	0.105	0.0091	0.907	0.599	0.923	0.808	0.876	0.747	0.91	0.974	0.688	0.721	0.73	1	0.146	0.743	0.443	0.936
NC1(C(=O)N[C@@H](CCO)c2ccc(Cl)cc2)CCN(c2ncnc3[nH]ccc23)CC1 [Capivasertib] + CCN(CCO)CCCOc1ccc2c(Nc3cc(CC(=O)Nc4cccc(F)c4)[nH]n3)ncnc2c1 [AZD2811] (first compound max 10 µM, 7x7, partner max 1 µM)	0.001	0.0616	-0.015	-0.0122	0.445	0.401	0.393	0.679	0.452	0.877	0.615	0.257	0.632	0.28	0.35	0.571	0.197	0.631	0.748	0.651
COc1cccc(OCCCN)c1-c1cc(Nc2cnc(C#N)cn2)n[nH]1 [Prexasertib] + CN(C)CCCOc1ccc(-c2ccc3ncc4c(c3c2)n(C2CCOCC2)c(=O)n4C)cn1 [AZD0156] (first compound max 1 µM, 7x7, partner max 1 µM)	0.0133	-0.0244	0.009	0.0251	0.517	0.531	0.988	0.986	0.737	0.582	0.891	0.974	0.896	0.813	0.385	0.962	0.516	0.37	0.65	0.946
NC1(C(=O)N[C@@H](CCO)c2ccc(Cl)cc2)CCN(c2ncnc3[nH]ccc23)CC1 [Capivasertib] + CC(C)n1c(=O)n(C)c2cnc3cc(F)c(-c4ccc(OCCCN5CCCCC5)nc4)cc3c21 [AZD1390] (first compound max 10 µM, 7x7, partner max 0.3 µM)	-0.0304	-0.0204	-0.0412	-0.0332	0.358	0.365	0.255	0.514	0.436	0.514	0.524	0.21	0.586	0.298	0.201	0.421	0.215	0.523	0.616	0.488
Cc1c2c(nn1C)CSCc1cc(n(C)n1)CSc1cc(c3ccccc3c1)OCCCc1c(C(=O)O)n(C)c3c-2c(Cl)ccc13 [AZD5991] + C=CCn1c(=O)c2cnc(Nc3ccc(N4CCN(C)CC4)cc3)nc2n1-c1cccc(C(C)(C)O)n1 [AZD1775] (first compound max 1 µM, partner max 1 µM)	-0.0075	-0.0421	0.0319	0.0396	0.487	0.496	0.865	0.89	0.646	0.266	0.69	0.853	0.856	0.317	0.291	0.554	0.378	0.598	0.801	0.915
